Assay results as given in patent US11339150B2, “Benzimidazole compounds as HDAC6 inhibitors” (OnKure, Inc., priority 2019, dated 2022).

Tests used:
[1] = target: T1, HDAC6 (Homo sapiens, UniProt Q9UBN7); assay: HDAC assay (fluorogenic substrate), HDAC6; type: biochemical
T1 sequence (Q9UBN7 1-1215): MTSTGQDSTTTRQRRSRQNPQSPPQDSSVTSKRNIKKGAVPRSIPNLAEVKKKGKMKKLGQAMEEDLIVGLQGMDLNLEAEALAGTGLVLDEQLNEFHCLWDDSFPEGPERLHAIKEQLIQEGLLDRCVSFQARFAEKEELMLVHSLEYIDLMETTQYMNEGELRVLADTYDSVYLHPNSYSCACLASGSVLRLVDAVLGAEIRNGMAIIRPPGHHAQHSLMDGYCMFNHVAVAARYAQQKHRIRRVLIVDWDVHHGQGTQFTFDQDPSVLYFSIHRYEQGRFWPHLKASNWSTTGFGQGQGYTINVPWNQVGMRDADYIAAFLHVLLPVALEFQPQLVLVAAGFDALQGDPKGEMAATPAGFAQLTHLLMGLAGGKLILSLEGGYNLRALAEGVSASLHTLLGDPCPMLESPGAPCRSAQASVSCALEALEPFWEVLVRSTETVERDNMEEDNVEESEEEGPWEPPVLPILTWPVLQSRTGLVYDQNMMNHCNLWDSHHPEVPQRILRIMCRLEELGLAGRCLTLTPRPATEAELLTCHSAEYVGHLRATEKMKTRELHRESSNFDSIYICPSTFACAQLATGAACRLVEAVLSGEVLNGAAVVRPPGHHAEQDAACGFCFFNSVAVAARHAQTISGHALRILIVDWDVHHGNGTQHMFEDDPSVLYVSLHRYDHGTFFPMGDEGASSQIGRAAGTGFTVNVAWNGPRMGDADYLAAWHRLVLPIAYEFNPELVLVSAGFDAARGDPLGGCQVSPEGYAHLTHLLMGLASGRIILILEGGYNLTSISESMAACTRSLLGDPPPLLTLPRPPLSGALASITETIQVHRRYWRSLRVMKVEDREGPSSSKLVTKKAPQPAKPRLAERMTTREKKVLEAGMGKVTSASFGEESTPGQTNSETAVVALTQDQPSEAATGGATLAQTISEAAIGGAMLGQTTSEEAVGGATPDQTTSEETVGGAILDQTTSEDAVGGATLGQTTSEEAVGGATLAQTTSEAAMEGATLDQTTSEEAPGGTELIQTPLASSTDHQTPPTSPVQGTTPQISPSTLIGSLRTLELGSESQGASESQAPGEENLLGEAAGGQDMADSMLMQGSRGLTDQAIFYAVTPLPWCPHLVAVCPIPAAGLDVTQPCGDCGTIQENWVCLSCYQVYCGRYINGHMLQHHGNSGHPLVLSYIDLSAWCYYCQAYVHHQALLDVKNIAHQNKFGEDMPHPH
Method: (§1) Base Reaction buffer: 50 mM Tris-HCl, pH8.0, 137 mM NaCl, 2.7 mM KCl, and 1 mM MgCl2. Add fresh: 1 mg/ml BSA, 1% DMSO
(§2) Fluorogenic HDAC General Substrate: 50 μM, Arg-His-Lys-Lys(Ac)
(§3) • 1. Deliver 2× enzyme in wells of reaction plate except No Enzyme control wells. Add buffer in No En wells. • 2. Deliver compounds in 100% DMSO into the enzyme mixture by Acoustic technology (Echo550; nanoliter range). Spin down and pre-incubation. • 3. Deliver 2× Substrate Mixture (Fluorogenic HDAC Substrate and co-factor if applicable) in all reaction wells to initiate the reaction. Spin and shake. • 4. Incubate for 30 min for Class 2A, 1 hr for HDAC1, 2, 3, and 6, and 2 hr for the rest of HDACs and SIRTs at 30° C. with seal. Development Step: • 5. Add Developer with Trichostatin A (or Nicotinamide for SIRTs) to stop the reaction and to generate fluorescent color. • 6. Kinetic measurement for 1.5 hr with Envision with 15 min interval. (Ex/Em=360/460 nm) • 7. Take endpoint reading for analysis after the development reaches plateau.

[2] = target: HDAC2 (Homo sapiens, UniProt Q92769); assay: HDAC assay (fluorogenic substrate), HDAC2; type: biochemical; details: isoform selectivity table
Method: as §1, §2, §3

[3] = test system: Tubulin deacetylation in U266B1 human myeloma cell line; assay: Tubulin deacetylation inhibition in U266B1 cells; type: cell-based; details: Cell Type U266B1
Method: Tubulin Deacetylation Inhibition
Example 1 was dissolved with DMSO at 10 mM stock. Reference compound TSA was dissolved with DMSO at 10 mM stock. U266B1 human myeloma cell line was purchased from American Type Culture Collection (Manassas, Va.). U266B1 cells were grown in RPMI medium and supplemented with 15% heat-inactivated fetal bovine serum (FBS), 100 μg/ml penicillin, and 100 μg/ml streptomycin. Cultures were maintained at 37° C. in a humidified atmosphere of 5% CO2 and 95% air. 12% Bis-Tris gel and nitrocellulose membrane were purchased from Thermo Fisher. Anti-acetylated-Tubulin antibody (Catalogue #T7451) was purchased from Sigma-Aldrich. Anti-α-Tubulin antibody (Catalogue #sc-12462-R) antibody was purchased from Santa Cruz Biotechnology. Anti-Acetylated Histone H3 (K9) (Catalogue #9649) and anti-Histone H3 (Catalogue #3638) antibodies were purchased from Cell Signaling Technology. Anti-rabbit IgG IRDye 680RD or anti-mouse IgG IRDye 800CW secondary antibodies were purchased from LI-COR.

[4] = Pharmacokinetic evaluation in male CD1 mice; details: mouse, in vivo, po, 10 mg/kg (p.o.)
[5] = target: HDAC3 (Homo sapiens, UniProt O15379); assay: HDAC assay (fluorogenic substrate), HDAC3; type: biochemical; details: isoform selectivity table
Method: as §1, §2, §3

[6] = target: HDAC1 (Homo sapiens, UniProt Q13547); assay: HDAC assay (fluorogenic substrate), HDAC1; type: biochemical; details: isoform selectivity table
Method: as §1, §2, §3

Sequence of HDAC2 (Q92769 whole entry, canonical isoform): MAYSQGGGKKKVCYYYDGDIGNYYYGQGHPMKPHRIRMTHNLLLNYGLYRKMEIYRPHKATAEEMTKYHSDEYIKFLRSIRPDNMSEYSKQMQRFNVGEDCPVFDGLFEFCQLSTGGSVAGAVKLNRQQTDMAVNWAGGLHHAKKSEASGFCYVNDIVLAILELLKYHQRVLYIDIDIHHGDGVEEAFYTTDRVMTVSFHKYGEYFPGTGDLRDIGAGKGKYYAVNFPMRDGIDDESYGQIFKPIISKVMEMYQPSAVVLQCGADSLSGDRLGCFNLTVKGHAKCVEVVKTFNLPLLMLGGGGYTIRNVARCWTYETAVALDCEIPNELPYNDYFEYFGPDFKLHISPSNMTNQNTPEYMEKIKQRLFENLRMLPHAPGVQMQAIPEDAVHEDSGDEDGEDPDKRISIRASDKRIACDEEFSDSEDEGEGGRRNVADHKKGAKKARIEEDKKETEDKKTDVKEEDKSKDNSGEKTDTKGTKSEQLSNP
Sequence of HDAC1 (Q13547 whole entry, canonical isoform): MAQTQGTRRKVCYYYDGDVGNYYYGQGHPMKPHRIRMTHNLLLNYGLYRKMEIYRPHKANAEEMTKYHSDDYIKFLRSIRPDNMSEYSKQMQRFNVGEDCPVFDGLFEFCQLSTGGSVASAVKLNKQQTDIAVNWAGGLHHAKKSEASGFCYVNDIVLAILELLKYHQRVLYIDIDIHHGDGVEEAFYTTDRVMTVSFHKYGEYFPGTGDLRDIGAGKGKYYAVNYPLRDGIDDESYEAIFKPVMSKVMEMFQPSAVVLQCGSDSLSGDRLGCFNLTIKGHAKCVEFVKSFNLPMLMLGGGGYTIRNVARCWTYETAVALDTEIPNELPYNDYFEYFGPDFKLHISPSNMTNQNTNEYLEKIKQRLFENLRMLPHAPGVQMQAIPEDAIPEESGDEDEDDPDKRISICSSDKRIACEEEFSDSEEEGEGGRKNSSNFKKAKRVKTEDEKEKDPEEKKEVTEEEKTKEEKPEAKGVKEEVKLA
Sequence of HDAC3 (O15379 whole entry, canonical isoform): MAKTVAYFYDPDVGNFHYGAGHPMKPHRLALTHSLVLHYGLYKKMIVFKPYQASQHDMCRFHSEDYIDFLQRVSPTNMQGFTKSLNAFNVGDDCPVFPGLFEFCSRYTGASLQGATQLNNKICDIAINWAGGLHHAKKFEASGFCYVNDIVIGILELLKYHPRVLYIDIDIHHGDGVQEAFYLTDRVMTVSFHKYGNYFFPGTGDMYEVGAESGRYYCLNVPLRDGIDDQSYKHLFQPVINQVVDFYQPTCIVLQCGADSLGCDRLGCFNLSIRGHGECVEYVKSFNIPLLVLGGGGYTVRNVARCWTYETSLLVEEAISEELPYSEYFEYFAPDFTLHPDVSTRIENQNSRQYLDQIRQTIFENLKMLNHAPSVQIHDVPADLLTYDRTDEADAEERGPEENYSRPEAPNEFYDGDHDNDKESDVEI
Sequence of HDAC3 (Q9Y618 395-489 partner limits assumed): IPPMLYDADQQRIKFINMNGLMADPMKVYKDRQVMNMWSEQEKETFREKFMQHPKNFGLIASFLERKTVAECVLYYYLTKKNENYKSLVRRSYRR

FC(F)c1nnc(-c2cnc(Nc3cc(-c4ccccc4)c4nc[nH]c4c3)nc2)o1 [Example 1, N-(5-(5-(difluoromethyl)-1,3,4-oxadiazol-2-yl)pyrimidin-2-yl)-4-phenyl-1H-benzo[d]imidazol-6-amine]
inhibition at 10 µM [1]: > 90%
% HDAC6 Inhibition @ 10 uM ([1]; 10 uM, isoform selectivity table): >90%
inhibition at 10 µM [2]: < 10%
IC50 [3]: 2.7 µM
AUC(0-t) [4]: 5.82 µg·h/mL
Cmax [4]: 1.45 µg/mL
half-life ([4]; read-out: T1/2 h (converted)): 1.75 h
inhibition at 10 µM [5]: < 10%
inhibition at 10 µM [6]: < 20%
